Data on 5 compounds can be found in DBAASP.

Some test systems named below: Bacillus pumilus; Pseudomonas aeruginosa; Shigella dysenteriae; Bacillus cereus; Escherichia coli JM109; Bacillus subtilis BR151; Listeria innocua; Pasteurella multocida; Pseudomonas haemolytica; Streptococcus uberis; Micrococcus luteus; Leuconostoc lactis; Escherichia coli KF111; Escherichia coli KF130; Staphylococcus aureus; Escherichia coli UB1005; Escherichia coli.

Holding throughout (assay): ≥ marks a high value that may be exact or a test limit, other limits are often not marked, values filed in µg/mL are converted to µM
Assay [1] relates to Acinetobacter calcoaceticus.
The test system of assay [2] is Candida albicans ATCC 2002.
Assay [3] relates to Escherichia coli ATCC 25922.
The test system of assay [4] is Staphylococcus aureus ATCC 2592.
Assay [5] relates to Staphylococcus aureus 1206.
For assay [6], the system named is Enterococcus faecium A634.
Assay [7] has as its system Staphylococcus aureus ATCC 29213.
In assay [8] the test system is Staphylococcus aureus ATCC 25923.
In assay [9] the test system is Staphylococcus epidermidis.
Assay [10] relates to Pseudomonas aeruginosa K799.
The test system of assay [11] is Salmonella enterica subsp. enterica serovar Typhimurium ATCC 14028s.
The subject of assay [12] is Pseudomonas aeruginosa H744.
Assay [13] relates to Pseudomonas aeruginosa H374.
For assay [14], the system named is Bacillus subtilis KCCM 11495.
For assay [15], the system named is Enterococcus faecium CCARM 5029.
The test system of assay [16] is Pseudomonas aeruginosa CCARM 2092.
The subject of assay [17] is Pseudomonas aeruginosa CCARM 2095.
Assay [18] relates to Staphylococcus aureus CCARM 3572.
The subject of assay [19] is Enterococcus faecium CCARM 5028.
For assay [20], the system named is Escherichia coli KCCM 11569.

Structures are written as SMILES. ≈ marks a conversion by molar mass, not a printed value. Where “and” joins values, the source holds several entries; their conditions need not be identical. Equal values may be shown once.

For orientation: MIC means the least concentration at which growth counts as inhibited. `CC[C@H](C)[C@H](NC(=O)[C@@H]1CCCN1C(=O)[C@H](Cc1ccccc1)NC(=O)[C@@H](N)Cc1ccccc1)C(=O)N[C@H](C(=O)NCC(=O)N[C@@H](CCCCN)C(=O)N[C@@H](CC(C)C)C(=O)N[C@@H](CC(C)C)C(=O)N[C@@H](CO)C(=O)NCC(=O)N[C@@H](CC(C)C)C(=O)N[C@@H](CC(C)C)C(N)=O)C(C)C` [FFPIVGKLLSGLL]: the MIC in [1] was no less than 42.7 µM; in assay [2] it was 3.56 µM (≈ 5 µg/mL); in assay [3] it was 5.34 µM (≈ 7.49 µg/mL); against Bacillus pumilus it was 5.34 µM (≈ 7.49 µg/mL); in assay [4] it was 5.34 µM (≈ 7.49 µg/mL); against Pseudomonas aeruginosa, 3.56 µM (≈ 5 µg/mL). In addition, the figures for the MIC against Shigella dysenteriae and against Bacillus cereus were 14.2 µM (≈ 20 µg/mL) and no less than 53.4 µM, respectively.
As for `CCC(C)[C@H](NC(=O)CN)C(=O)NCC(=O)N[C@@H](CCCCN)C(=O)N[C@@H](Cc1ccccc1)C(=O)N[C@@H](CC(C)C)C(=O)N[C@@H](Cc1cnc[nH]1)C(=O)N[C@@H](C)C(=O)N[C@@H](C)C(=O)N[C@@H](CCCCN)C(=O)N[C@@H](CCCCN)C(=O)N[C@@H](Cc1ccccc1)C(=O)N[C@@H](C)C(=O)N[C@@H](CCCCN)C(=O)N[C@@H](C)C(=O)N[C@@H](Cc1ccccc1)C(=O)N[C@H](C(=O)N[C@@H](C)C(=O)N[C@@H](CCC(=O)O)C(=O)N[C@H](C(=O)N[C@@H](CCSC)C(=O)N[C@@H](CC(N)=O)C(=O)N[C@@H](CO)C(N)=O)C(C)CC)C(C)C` (stereo partly drawn) [GIGKFLHAAKKFAKAFVAEIMNS], the MIC in assay [5] is 20.2 µM (≈ 50 µg/mL); in the assay with Escherichia coli JM109, 2.42 µM (≈ 6 µg/mL); in assay [6] it was 20.2 µM (≈ 50 µg/mL); with Bacillus subtilis BR151 it was 1.21 µM (≈ 3 µg/mL).
For `CC[C@H](C)[C@H](NC(=O)[C@@H](NC(=O)[C@@H]1CCCN1C(=O)[C@@H](NC(=O)[C@@H](NC(=O)[C@H](Cc1cnc[nH]1)NC(=O)[C@@H]1CCCN1C(=O)[C@H](CC(C)C)NC(=O)[C@@H](NC(=O)[C@H](Cc1cnc[nH]1)NC(=O)[C@H](CCCCN)NC(=O)[C@H](C)NC(=O)[C@@H](NC(=O)[C@H](C)NC(=O)CNC(=O)[C@H](CC(C)C)NC(=O)[C@@H](NC(=O)[C@H](CO)NC(=O)[C@H](Cc1ccccc1)NC(=O)[C@H](CC(C)C)NC(=O)CN)C(C)C)C(C)C)C(C)C)C(C)C)C(C)C)C(C)C)C(=O)N[C@@H](C)C(=O)N[C@@H](CCC(=O)O)C(=O)N[C@@H](CCCCN)C(=O)N[C@@H](CC(C)C)C(N)=O` [GLFSVLGAVAKHVLPHVVPVIAEKL], the MIC in the assay on Listeria innocua was determined as 19.3 µM (≈ 50 µg/mL); in [7], 4.63 µM (≈ 12 µg/mL); against Pasteurella multocida, 9.64 µM (≈ 25 µg/mL); in [8] it was 2.31 µM (≈ 6 µg/mL); against Pseudomonas haemolytica, 19.3 µM (≈ 50 µg/mL); with Streptococcus uberis it was 9.64 µM (≈ 25 µg/mL). Further, the values for the MIC (in the assay on Micrococcus luteus; in [9]; with Leuconostoc lactis) were 9.64 µM (≈ 25 µg/mL), 4.63 µM (≈ 12 µg/mL) and 1.16 µM (≈ 3 µg/mL), respectively.
For the compound `CC[C@H](C)[C@H](NC(=O)[C@@H]1CCCN1C(=O)[C@H](CCCCN)NC(=O)[C@H](CC(C)C)NC(=O)[C@H](C)NC(=O)[C@@H](NC(=O)[C@H](Cc1cnc[nH]1)NC(=O)[C@H](Cc1ccccc1)NC(=O)[C@@H](NC(=O)[C@@H](NC(=O)[C@H](CCCN=C(N)N)NC(=O)[C@@H](NC(=O)[C@@H]1CCCN1C(=O)[C@H](CO)NC(=O)[C@H](CCCCN)NC(=O)[C@H](Cc1ccccc1)NC(=O)[C@@H](NC(=O)[C@H](CCCN=C(N)N)NC(=O)[C@H](CC(C)C)NC(=O)[C@H](Cc1ccccc1)NC(=O)[C@H](CO)NC(=O)[C@H](CCCCN)NC(=O)[C@H](Cc1c[nH]c2ccccc12)NC(=O)[C@@H](N)CCCCN)[C@@H](C)O)C(C)C)[C@@H](C)O)C(C)C)[C@@H](C)O)C(=O)N[C@@H](CO)C(=O)N[C@@H](CO)C(=O)O` [KWKSFLRTFKSPVRTVFHTALKPISS], the MIC was 1.31 µM (≈ 4 µg/mL) in the assay on Escherichia coli KF111; 5.22 µM (≈ 16 µg/mL) in assay [10]; 2.61 µM (≈ 8 µg/mL) in [11]; 1.31 µM (≈ 4 µg/mL) with Escherichia coli KF130; greater than 20.9 µM against Staphylococcus aureus; 5.22 µM (≈ 16 µg/mL) in assay [9]. The MIC in assay [12] was found to be 5.22 µM (≈ 16 µg/mL); in the assay with Escherichia coli UB1005, 0.653 µM (≈ 2 µg/mL); with Escherichia coli, 0.653 µM (≈ 2 µg/mL); in assay [13], 5.22 µM (≈ 16 µg/mL).
As for `CC(C)C[C@H](NC(=O)CNC(=O)[C@H](CCCCN)NC(=O)[C@H](CCCCN)NC(=O)[C@H](CC(C)C)NC(=O)[C@H](CC(C)C)NC(=O)[C@H](C)NC(=O)[C@H](CC(N)=O)NC(=O)[C@H](CC(C)C)NC(=O)[C@H](Cc1c[nH]c2ccccc12)NC(=O)[C@@H](N)CCCCN)C(=O)N[C@@H](CC(N)=O)C(=O)N[C@@H](CS)C(=O)N[C@@H](C)C(=O)N[C@@H](CCCCN)C(=O)NCC(=O)N[C@H](C(=O)N[C@@H](CC(C)C)C(=O)N[C@@H](C)C(N)=O)C(C)C` [KWLNALLKKGLNCAKGVLA], the MIC is 0.49 µM (≈ 1 µg/mL) in [14]; 0.693 µM and 1.39 µM in assay [15]; 1.39 µM (≈ 2.83 µg/mL) in assay [16]; 2.77 µM (≈ 5.65 µg/mL) in [17]; 5.54 µM (≈ 11.3 µg/mL) in [18]; 0.693 µM and 1.39 µM in assay [19]. In addition, the MIC in [20] was found to be 1.39 µM (≈ 2.83 µg/mL).
